Test results: the supplement of paper PMC11208160

Assay: recombinant barcode read abundance after kanamycin selection (control-corrected) (log10(CPM+1)); higher = more efficient recombination; sequences stand for … in AGTGCAGAGAAAATCGGCCAGTTTTCTCTGCCTGCAGTCCGCATGCCGT…ATTTATGCAGCGGACTGCCTTTCTCCCAAAGTGATAAACCGGACAGTATCATGGACCGGTTTTCCCGGTAATCCGTATTTGCAAGGTTGGTTTCACT; site = the 11-nt target
Procedure: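 Same pooled E. coli target screen (IS621 bridge recombinase, kanamycin selection, control-corrected CPM, mean of 2 biological replicates). Here the two core-binding nucleotides of the LTG and RTG of the bridge RNA target-binding loop are mutated. Target and donor CT cores are held constant, and the other 9 guide positions match the target. The target is read from the library oligo sequence. Molecule = full bridge RNA written as DNA: nt 1-80 from the library oligo, rest WT scaffold.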

Sequence	recombinant barcode read abundance (log10)
AAACACAACTGGGTTCTAACCTGTTGCCTGT [AAACACACTAG_LTGcore_AC_RTGcore_AC] (site AAACACACTAG) (LTG core: AC, RTG core: AC)	0.0446
AAACACAATTGGGTTCTAACCTGTTGCCTAT [AAACACACTAG_LTGcore_AT_RTGcore_AT] (site AAACACACTAG) (LTG core: AT, RTG core: AT)	0.209
AAACACACTTGGGTTCTAACCTGTTGCCTCT [AAACACACTAG_LTGcore_CT_RTGcore_AG] (site AAACACACTAG) (LTG core: CT, RTG core: AG)	2.46
AAACACACTTGGGTTCTAACCTGTTGCCTGA [AAACACACTAG_LTGcore_CT_RTGcore_TC] (site AAACACACTAG) (LTG core: CT, RTG core: TC)	1.19
AAACACACTTGGGTTCTAACCTGTTGCCTTC [AAACACACTAG_LTGcore_CT_RTGcore_GA] (site AAACACACTAG) (LTG core: CT, RTG core: GA)	0.477
AAACACACTTGGGTTCTAACCTGTTGCCTTG [AAACACACTAG_LTGcore_CT_RTGcore_CA] (site AAACACACTAG) (LTG core: CT, RTG core: CA)	0.248
AAACACAGATGGGTTCTAACCTGTTGCCTTC [AAACACACTAG_LTGcore_GA_RTGcore_GA] (site AAACACACTAG) (LTG core: GA, RTG core: GA)	0.152
AAACACAGCTGGGTTCTAACCTGTTGCCTAG [AAACACACTAG_LTGcore_GC_RTGcore_CT] (site AAACACACTAG) (LTG core: GC, RTG core: CT)	0.0255
AAACACAGGTGGGTTCTAACCTGTTGCCTAG [AAACACACTAG_LTGcore_GG_RTGcore_CT] (site AAACACACTAG) (LTG core: GG, RTG core: CT)	0.463
AAACACAGGTGGGTTCTAACCTGTTGCCTCC [AAACACACTAG_LTGcore_GG_RTGcore_GG] (site AAACACACTAG) (LTG core: GG, RTG core: GG)	0.0137
AAACACATGTGGGTTCTAACCTGTTGCCTAG [AAACACACTAG_LTGcore_TG_RTGcore_CT] (site AAACACACTAG) (LTG core: TG, RTG core: CT)	0.247
AAACACATTTGGGTTCTAACCTGTTGCCTAA [AAACACACTAG_LTGcore_TT_RTGcore_TT] (site AAACACACTAG) (LTG core: TT, RTG core: TT)	0.889
AAACAGTAATGGGTTCTAACCTGTTGCCTTT [AAACAGTCTAG_LTGcore_AA_RTGcore_AA] (site AAACAGTCTAG) (LTG core: AA, RTG core: AA)	0.199
AAACAGTCCTGGGTTCTAACCTGTTGCCTGG [AAACAGTCTAG_LTGcore_CC_RTGcore_CC] (site AAACAGTCTAG) (LTG core: CC, RTG core: CC)	0.0864
AAACAGTCTTGGGTTCTAACCTGTTGCCTAC [AAACAGTCTAG_LTGcore_CT_RTGcore_GT] (site AAACAGTCTAG) (LTG core: CT, RTG core: GT)	0.553
AAACAGTCTTGGGTTCTAACCTGTTGCCTCG [AAACAGTCTAG_LTGcore_CT_RTGcore_CG] (site AAACAGTCTAG) (LTG core: CT, RTG core: CG)	1.3

Sequence	recombinant barcode read abundance (log10)
AAACAGTCTTGGGTTCTAACCTGTTGCCTGT [AAACAGTCTAG_LTGcore_CT_RTGcore_AC] (site AAACAGTCTAG) (LTG core: CT, RTG core: AC)	1.66
AAACAGTCTTGGGTTCTAACCTGTTGCCTTT [AAACAGTCTAG_LTGcore_CT_RTGcore_AA] (site AAACAGTCTAG) (LTG core: CT, RTG core: AA)	1.32
AAACAGTGCTGGGTTCTAACCTGTTGCCTGC [AAACAGTCTAG_LTGcore_GC_RTGcore_GC] (site AAACAGTCTAG) (LTG core: GC, RTG core: GC)	0.0997
AAACAGTGGTGGGTTCTAACCTGTTGCCTCC [AAACAGTCTAG_LTGcore_GG_RTGcore_GG] (site AAACAGTCTAG) (LTG core: GG, RTG core: GG)	0.0531
AAACAGTGTTGGGTTCTAACCTGTTGCCTAC [AAACAGTCTAG_LTGcore_GT_RTGcore_GT] (site AAACAGTCTAG) (LTG core: GT, RTG core: GT)	0.0266
AAACAGTGTTGGGTTCTAACCTGTTGCCTAG [AAACAGTCTAG_LTGcore_GT_RTGcore_CT] (site AAACAGTCTAG) (LTG core: GT, RTG core: CT)	0.0452
AAACAGTTGTGGGTTCTAACCTGTTGCCTAG [AAACAGTCTAG_LTGcore_TG_RTGcore_CT] (site AAACAGTCTAG) (LTG core: TG, RTG core: CT)	0.029
AAACAGTTTTGGGTTCTAACCTGTTGCCTAA [AAACAGTCTAG_LTGcore_TT_RTGcore_TT] (site AAACAGTCTAG) (LTG core: TT, RTG core: TT)	0.182
AAACATGAGTGGGTTCTAACCTGTTGCCTAG [AAACATGCTAG_LTGcore_AG_RTGcore_CT] (site AAACATGCTAG) (LTG core: AG, RTG core: CT)	0.109
AAACATGAGTGGGTTCTAACCTGTTGCCTCT [AAACATGCTAG_LTGcore_AG_RTGcore_AG] (site AAACATGCTAG) (LTG core: AG, RTG core: AG)	0.191
AAACATGCGTGGGTTCTAACCTGTTGCCTCG [AAACATGCTAG_LTGcore_CG_RTGcore_CG] (site AAACATGCTAG) (LTG core: CG, RTG core: CG)	0.135
AAACATGCTTGGGTTCTAACCTGTTGCCTAT [AAACATGCTAG_LTGcore_CT_RTGcore_AT] (site AAACATGCTAG) (LTG core: CT, RTG core: AT)	0.681
AAACATGCTTGGGTTCTAACCTGTTGCCTCA [AAACATGCTAG_LTGcore_CT_RTGcore_TG] (site AAACATGCTAG) (LTG core: CT, RTG core: TG)	0.288
AAACATGCTTGGGTTCTAACCTGTTGCCTCG [AAACATGCTAG_LTGcore_CT_RTGcore_CG] (site AAACATGCTAG) (LTG core: CT, RTG core: CG)	1.02
AAACATGCTTGGGTTCTAACCTGTTGCCTCT [AAACATGCTAG_LTGcore_CT_RTGcore_AG] (site AAACATGCTAG) (LTG core: CT, RTG core: AG)	0.435

Assay: recombinant barcode read abundance after kanamycin selection (control-corrected) (log10(CPM+1)); higher = more efficient recombination; sequences stand for … in AGTGCAGAGAAAATCGGCCAGTTTTCTCTGCCTGCAGTCCGCATGCCGT…AGATTTATGCAGCGGACTGCCTTTCTCCCAAAGTGATAAACCGGACAGTATCATGGACCGGTTTTCCCGGTAATCCGTATTTGCAAGGTTGGTTTCACT; site = the 11-nt target
How it was run: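 A promoter, a target, a barcode and the first 104 bridge RNA bases under J23119 made up each oligo. Oligos were Gibson-cloned into a vector bearing the other 73 bp and a T7-inducible recombinase, then co-electroporated into E. coli with a donor plasmid and plated in duplicate on chloramphenicol/ampicillin LB agar (control) or chloramphenicol/ampicillin/kanamycin with 0.1 mM IPTG. Recombination efficiency is the averaged, control-corrected counts per million of recombinant-junction barcodes. Reported values are log10(CPM+1).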

Sequence	recombinant barcode read abundance (log10)
TTGGTCGCTTGGGTTCTAACCTGTTGCCT (site TTGGGCGCTAG)	0.085
TTGGTCGCTTGGGTTCTAACCTGTTGCCT (site TTGGTCGCTAG)	1.71
TTGTAGACTTGGGTTCTAACCTGTTGCCT (site TTGATGACTAG)	0.484
TTGTAGACTTGGGTTCTAACCTGTTGCCT (site TTGTAGACTAG)	1.22
TTGTGTTCTTGGGTTCTAACCTGTTGCTA (site GTGTGTTCTTG)	0.0284
TTGTGTTCTTGGGTTCTAACCTGTTGCTA (site TTGTGTTCTTA)	0.465
